# According to patent US11358952B2, “Substituted 4-aminoisoindoline-1,3-dione compounds, compositions thereof, and methods of treatment therewith” (Celgene Corporation, priority 2018, dated 2022):
# Test system: SU-DHL-4 cell line
# Test: SU-DHL-4 cell proliferation assay (Cell Titer-Glo viability)
# Type: cell-based
# Conditions: Homo sapiens; cell viability IC50 activity level, DLBCL cell line SU-DHL-4, 120 hours post-treatment; read-out: SU-DHL-4 Act
# Procedure: SU-DHL-4 Cell Proliferation Assay.
# The following is an example of an assay that can be used to determine the anti-proliferative activity of Isoindolinedione Compounds in a DLBCL cell line, for example, the SU-DHL-4 cell line (Deutsche Sammlung von Mikroorganismen and Zellkulturen GmbH [DSMZ]: catalogue number ACC-495) at 120 hours post-treatment. The seeding density for SU-DHL-4 can be optimized to ensure assay linearity in 1536-well plates.
# Increasing concentrations of test compounds (0.5 nM to 10 μM) were spotted in a 20-point dilution fashion (unevenly spaced data points) via an acoustic dispenser (EDC ATS-100) into an empty 1536-well plate. The DMSO concentration was kept constant for a final assay concentration of 0.1% DMSO. Prior to testing, SU-DHL-4 cells were grown in RPMI-1640 (Roswell Park Memorial Institute—1640) medium with 10% FBS (fetal bovine serum: HyClone) and expanded in culture flasks to provide sufficient amounts of starting material. Cells were then diluted to 500 cells per well in a 5 μL volume, and added directly to the compound-spotted 1536-well plates. Cells were allowed to grow for 120 hours in 5% CO2 at 37° C. At the time when exposure of cells to compound began (to), initial viable cell number was assessed via Cell Titer-Glo® Luminescent Cell Viability Assay at a 1 vol:2 vol ratio according to manufacturer's instructions (Promega Corporation, Madison, Wis.) by quantifying the level of luminescence generated by adenosine-5′-triphosphate (ATP) present in viable cells. After 120 hours, cell viability of the treated cells was assessed via Cell Titer-Gb® and read for luminescence. All growth inhibition curves were processed and evaluated using Activity Base (IDBS, Alameda, Calif.). Cell viability IC50 values were calculated using a four parameter logistic model (sigmoidal dose-response model): y=(A+((B−A)/(1+((C/x)^D)))) wherein: A=YMin B=YMax C=EC50 D=Hill slope IC50=the concentration of the compound when Y=50% of DMSO control Y=cell viability measured as luminescence unit, and x=concentration of compound.
row,Structure (SMILES),IC50 [µM]
1,"O=C1CCC(N2C(=O)c3cccc(NCc4ccc(CN5CCN(c6ccc(F)cc6F)CC5)cc4)c3C2=O)C(=O)N1 (stereo not shown) [Cpd 1, 4-(4-((4-(2,4-difluorophenyl)piperazin-1-yl)methyl)benzylamino)-2-(2,6-dioxopiperidin-3-yl)isoindoline-1,3-dione]",0.501 to 0.75
2,"O=C1CCC(N2C(=O)c3cccc(NCc4ccc(CN5CCN(c6ccc(F)cc6)CC5)cc4)c3C2=O)C(=O)N1 (stereo not shown) [Cpd 2, 2-(2,6-dioxopiperidin-3-yl)-4-(4-((4-(4-fluorophenyl)piperazin-1-yl)methyl)benzylamino)isoindoline-1,3-dione]",0.501 to 0.75
3,"O=C1CCC(N2C(=O)c3cccc(NCc4ccc(CN5CCN(c6ccc(Cl)cc6)CC5)cc4)c3C2=O)C(=O)N1 (stereo not shown) [Cpd 3, 4-(4-((4-(4-chlorophenyl)piperazin-1-yl)metthyl)benzylamino)-2-(2,6-dioxopiperidin-3-yl)isoindoline-1,3-dione]",0.2 to 0.5
4,"O=C1CCC(N2C(=O)c3cccc(NCc4ccc(CN5CCN(c6ccc(Cl)cc6Cl)CC5)cc4)c3C2=O)C(=O)N1 (stereo not shown) [Cpd 4, 4-(4-((4-(2,4-dichlorophenyl)piperazin-1-yl)methyl)benzylamino)-2-(2,6-dioxopiperidin-3-yl)isoindoline-1,3-dione]",0.501 to 0.75
5,"O=C1CCC(N2C(=O)c3cccc(NCc4ccc(CN5CC(c6ccccc6)C5)cc4)c3C2=O)C(=O)N1 (stereo not shown) [Cpd 6, 2-(2,6-dioxopiperidin-3-yl)-4-(4-((3-phenylazetidin-1-yl)methyl)benzylamino)isoindoline-1,3-dione]",0.501 to 0.75
6,"N#Cc1ccc(C2CN(Cc3ccc(CNc4cccc5c4C(=O)N(C4CCC(=O)NC4=O)C5=O)cc3)C2)cc1 (stereo not shown) [Cpd 7, 4-(1-(4-((2-(2,6-dioxopiperidin-3-yl)-1,3-dioxoisoindolin-4-ylamino)methyl)benzyl)azetidin-3-yl)benzonitrile]",< 0.2
7,"Cc1cc(C#N)ccc1N1CCN(Cc2ccc(CNc3cccc4c3C(=O)N(C3CCC(=O)NC3=O)C4=O)cc2)CC1 (stereo not shown) [Cpd 8, 4-(4-(4-((2-(2,6-dioxopiperidin-3-yl)-1,3-dioxoisoindolin-4-ylamino)methyl)benzyl)piperazin-1-yl)-3-methylbenzonitrile]",0.2 to 0.5
8,"O=C1CCC(N2C(=O)c3cccc(NCc4ccc(CN5CC(c6ccc(F)cc6)C5)cc4)c3C2=O)C(=O)N1 (stereo not shown) [Cpd 14, 2-(2,6-dioxopiperidin-3-yl)-4-(4-((3-(4-fluorophenyl)azetidin-1-yl)methyl)benzylamino)isoindoline-1,3-dione]",0.2 to 0.5
9,"O=C1CCC(N2C(=O)c3cccc(NCc4ccc(CN5CC(c6ccccn6)C5)cc4)c3C2=O)C(=O)N1 (stereo not shown) [Cpd 16, 2-(2,6-dioxopiperidin-3-yl)-4-(4-((3-(pyridin-2-yl)azetidin-1-yl)methyl)benzylamino)isoindoline-1,3-dione]",< 0.2
10,"O=C1CCC(N2C(=O)c3cccc(NCc4ccc(CN5CCC(F)(c6ccccn6)CC5)cc4)c3C2=O)C(=O)N1 (stereo not shown) [Cpd 19, 2-(2,6-dioxopiperidin-3-yl)-4-(4-((4-fluoro-4-(pyridin-2-yl)piperidin-1-yl)methyl)benzylamino)isoindoline-1,3-dione]",0.501 to 0.75
11,"CCC1CCN(Cc2ccc(CNc3cccc4c3C(=O)N(C3CCC(=O)NC3=O)C4=O)cc2)CC1 (stereo not shown) [Cpd 22, 2-(2,6-dioxopiperidin-3-yl)-4-(4-((4-ethylpiperidin-1-yl)methyl)benzylamino)isoindoline-1,3-dione]",0.2 to 0.5
12,"O=C1CCC(N2C(=O)c3cccc(NCc4ccc(CN5CCC6(CCC6)CC5)cc4)c3C2=O)C(=O)N1 (stereo not shown) [Cpd 23, 4-(4-(7-azaspiro[3.5]nonan-7-ylmethyl)benzylamino)-2-(2,6-dioxopiperidin-3-yl)isoindoline-1,3-dione]",< 0.2

# Further lines, results first:
row,IC50 [µM],Structure (SMILES)
1,< 0.2,"O=C1CCC(N2C(=O)c3cccc(NCc4ccc(CN5C[C@@H]6CC(c7ccc(F)cc7)=C[C@@H]6C5)cc4)c3C2=O)C(=O)N1 (stereo in doubt) [Cpd 59, 2-(2,6-dioxopiperidin-3-yl)-4-(4-(((3aS,6aR)-5-(4-fluorophenyl)-3,3a,6,6a-tetrahydrocyclopenta[c]pyrrol-2(1H)-yl)methyl)benzylamino)isoindoline-1,3-dione]"
2,< 0.2,"CC(C)C1CCN(Cc2ccc(CNc3cccc4c3C(=O)N(C3CCC(=O)NC3=O)C4=O)cc2)CC1 (stereo not shown) [Cpd 5, 2-(2,6-dioxopiperidin-3-yl)-4-(4-((4-isopropylpiperidin-1-yl)methyl)benzylamino)isoindoline-1,3-dione]"
3,< 0.2,"N#Cc1ccc(N2CCN(Cc3ccc(CNc4cccc5c4C(=O)N(C4CCC(=O)NC4=O)C5=O)cc3)CC2)c(Cl)c1 (stereo not shown) [Cpd 9, 3-chloro-4-(4-(4-((2-(2,6-dioxopiperidin-3-yl)-1,3-dioxoisoindolin-4-ylamino)methyl)benzyl)piperazin-1-yl)benzonitrile]"
4,0.2 to 0.5,"O=C1CCC(N2C(=O)c3cccc(NCc4ccc(CN5CCN(c6ccc(C(F)(F)F)nc6)CC5)cc4)c3C2=O)C(=O)N1 (stereo not shown) [Cpd 10, 2-(2,6-dioxopiperidin-3-yl)-4-(4-((4-(6-(trifluoromethyl)pyridin-3-yl)piperazin-1-yl)methyl)benzylamino)isoindoline-1,3-dione]"
5,0.501 to 0.75,"N#Cc1cc(F)c(N2CCN(Cc3ccc(CNc4cccc5c4C(=O)N(C4CCC(=O)NC4=O)C5=O)cc3)CC2)c(Cl)c1 (stereo not shown) [Cpd 11, 3-chloro-4-(4-(4-((2-(2,6-dioxopiperidin-3-yl)-1,3-dioxoisoindolin-4-ylamino)methyl)benzyl)piperazin-1-yl)-5-fluorobenzonitrile]"
6,0.2 to 0.5,"O=C1CCC(N2C(=O)c3cccc(NCc4ccc(CN5CCN(c6ccccc6Cl)CC5)cc4)c3C2=O)C(=O)N1 (stereo not shown) [Cpd 12, 4-(4-((4-(2-chlorophenyl)piperazin-1-yl)methyl)benzylamino)-2-(2,6-dioxopiperidin-3-yl)isoindoline-1,3-dione]"
7,0.501 to 0.75,"O=C1CCC(N2C(=O)c3cccc(NCc4ccc(CN5CC(c6cccc(F)c6)C5)cc4)c3C2=O)C(=O)N1 (stereo not shown) [Cpd 13, 2-(2,6-dioxopiperidin-3-yl)-4-(4-((3-(3-fluorophenyl)azetidin-1-yl)methyl)benzylamino)isoindoline-1,3-dione]"
8,0.751 to 1,"N#Cc1cccc(C2CN(Cc3ccc(CNc4cccc5c4C(=O)N(C4CCC(=O)NC4=O)C5=O)cc3)C2)c1 (stereo not shown) [Cpd 15, 3-(1-(4-((2-(2,6-dioxopiperidin-3-yl)-1,3-dioxoisoindolin-4-ylamino)methyl)benzyl)azetidin-3-yl)benzonitrile]"
9,< 0.2,"NC(=O)c1ccc(N2CCN(Cc3ccc(CNc4cccc5c4C(=O)N(C4CCC(=O)NC4=O)C5=O)cc3)CC2)cn1 (stereo not shown) [Cpd 17, 5-(4-(4-((2-(2,6-dioxopiperidin-3-yl)-1,3-dioxoisoindolin-4-ylamino)methyl)benzyl)piperazin-1-yl)picolinamide]"
10,0.751 to 1,"O=C1CCC(N2C(=O)c3cccc(NCc4ccc(CN5CCN(c6ccc(Cl)cn6)CC5)cc4)c3C2=O)C(=O)N1 (stereo not shown) [Cpd 18, 4-(4-((4-(5-chloropyridin-2-yl)piperazin-1-yl)methyl)benzylamino)-2-(2,6-dioxopiperidin-3-yl)isoindoline-1,3-dione]"
11,0.2 to 0.5,"O=C1CCC(N2C(=O)c3cccc(NCc4ccc(CN5CCC(c6cc(F)cc(F)c6)CC5)cc4)c3C2=O)C(=O)N1 (stereo not shown) [Cpd 20, 4-(4-((4-(3,5-difluorophenyl)piperidin-1-yl)methyl)benzylamino)-2-(2,6-dioxopiperidin-3-yl)isoindoline-1,3-dione]"
12,0.501 to 0.75,"O=C1CCC(N2C(=O)c3cccc(NCc4ccc(CN5CCC6(CC5)CC6)cc4)c3C2=O)C(=O)N1 (stereo not shown) [Cpd 21, 4-(4-(6-azaspiro[2.5]octan-6-ylmethyl)benzylamino)-2-(2,6-dioxopiperidin-3-yl)isoindoline-1,3-dione]"
13,0.2 to 0.5,"CC(C)OC1CCN(Cc2ccc(CNc3cccc4c3C(=O)N(C3CCC(=O)NC3=O)C4=O)cc2)CC1 (stereo not shown) [Cpd 24, 2-(2,6-dioxopiperidin-3-yl)-4-(4-((4-isopropoxypiperidin-1-yl)methyl)benzylamino)isoindoline-1,3-dione]"
14,0.2 to 0.5,"O=C1CCC(N2C(=O)c3cccc(NCc4ccc(CN5CCC(n6cccn6)CC5)cc4)c3C2=O)C(=O)N1 (stereo not shown) [Cpd 25, 4-(4-((4-(1H-pyrazol-1-yl)piperidin-1-yl)methyl)benzylamino)-2-(2,6-dioxopiperidin-3-yl)isoindoline-1,3-dione]"
15,0.2 to 0.5,"O=C1CCC(N2C(=O)c3cccc(NCc4ccc(CN5CCC(C(F)(F)F)CC5)cc4)c3C2=O)C(=O)N1 (stereo not shown) [Cpd 26, 2-(2,6-dioxopiperidin-3-yl)-4-(4-((4-(trifluoromethyl)piperidin-1-yl)methyl)benzylamino)isoindoline-1,3-dione]"
16,0.2 to 0.5,"Cc1cc(C#N)cc(F)c1N1CCN(Cc2ccc(CNc3cccc4c3C(=O)N(C3CCC(=O)NC3=O)C4=O)cc2)CC1 (stereo not shown) [Cpd 27, 4-(4-(4-((2-(2,6-dioxopiperidin-3-yl)-1,3-dioxoisoindolin-4-ylamino)methyl)benzyl)piperazin-1-yl)-3-fluoro-5-methylbenzonitrile]"
